The text below walks through data of patent US9067898B1, “Isothiazole derivatives as GPR120 agonists for the treatment of type II diabetes” (Janssen Pharmaceutica NV, priority 2014, dated 2015).

One test has as its target T1, Human GPR120 short form (Homo sapiens, UniProt Q5NUL3).
T1 construct: expressed in transfected cells
T1 sequence (Q5NUL3 1-361): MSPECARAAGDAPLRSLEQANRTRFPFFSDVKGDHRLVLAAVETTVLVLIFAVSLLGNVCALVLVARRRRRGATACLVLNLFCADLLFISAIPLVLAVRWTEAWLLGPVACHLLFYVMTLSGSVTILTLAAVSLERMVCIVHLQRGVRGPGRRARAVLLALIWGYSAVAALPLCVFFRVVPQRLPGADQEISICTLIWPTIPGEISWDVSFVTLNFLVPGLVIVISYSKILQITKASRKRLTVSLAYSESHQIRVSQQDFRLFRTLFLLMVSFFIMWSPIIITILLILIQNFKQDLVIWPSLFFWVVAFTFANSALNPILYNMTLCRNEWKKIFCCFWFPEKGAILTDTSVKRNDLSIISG
The experiment in a line: Human GPR120 calcium flux assay (FLIPR), Procedure Calcium A. The class given is cell-based. To be noted: HEK-293 cells expressing human GPR120 short form, 2500 cells/well; read-out: GPR120 Ca2+ Assay A EC50. An outline of the steps: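 HEK293 cells stably expressing the short isoform (NM_001195755.1), 2500/well, starved 1 h, then loaded with Fluo-4 NW plus probenecid (30 min 37 °C, 15 min RT). Compound solutions 0.012–100 μM, 0.2% DMSO final; FLIPR read 300 s after addition. EC50 from Fmax−Fmin fitted to variable-slope sigmoid (Hill <2).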
For orientation: A change in cytosolic calcium serves as a functional read-out for many receptors and channels.

The target in test [1] is T2, long form of human GPR120 (Homo sapiens, UniProt Q5NUL3).
T2 construct: host or cells: PathHunter CHO-K1 GPR120 β-Arrestin Cell Line
Nature of the test: Human GPR120 DiscoveRx PathHunter Beta-Arrestin assay, Procedure β-arrestin A. The following applies: PathHunter CHO-K1 GPR120 β-Arrestin cell line, 3000 cells per well, read-out: hGPR120 β-arrestin A EC50. It is filed as cell-based. An excerpt: The binding of an agonist (medium/long chain fatty acids or small molecule agonists) to the G-protein-coupled receptor GPR120 activates phospholipase C, leading to release of intracellular Ca^+2 through the generation of inositol 1,4,5-trisphosphate (InsP3 or IP3). GPR120 activation can also trigger intracellular signaling via recruitment of Beta-Arrestin. In the present method, agonist-induced activation of the human GPR120 receptor is monitored through the use of PathHunter CHO-K1 GPR120 Beta-Arrestin Cell Line engineered by DiscoveRx, as detailed below. The cell lines are designed to co-express both the ProLink/Enzyme Donor (PK)-tagged GPCR and the Enzyme […] (EA)-tagged Beta-Arrestin fusion proteins. Upon GPR120 receptor stimulation/activation, the EA-tagged Beta-Arrestin portion is translocated to the tagged receptor, where the two enzyme fragments are brought within close proximity. Under these conditions, these fragments can interact and form an active Beta-gal enzyme complex through Enzyme Fragment Complementation (EFC). This active Beta-gal complex can enzymatically hydrolyse the substrate to produce a detectable light signal; therefore, activation as a function of agonist concentration can be expressed as an EC50 value to determine relative compound activities. This in vitro assay therefore serves to assess compound agonist activity of the GPR120. Procedure β-Arrestin A: In Procedure β-arrestin A, the cell used were PathHunter CHO-K1 GPR120 β-Arrestin Cell Line, expressing the long form of human GPR120 (Genbank accession number NM 181745), with 3000 cells per well. Procedure β-Arrestin B: In Procedure 3-arrestin B the cells used were PathHunter CHO-K1 GPR120S β-Arrestin Cell Line, expressing the short form of the GPR120 receptor (Accession #NM_181745), with 5000 cells/well. Assay Procedure:
The selected CHO-K1 GPR120 β-Arrestin cells were cultured in Ham's F12 media supplemented with 10% fetal bovine serum (FBS), 1% Glutamine, lx p/s, 800 μg/mL G418 and 300 μg/mL Hygromycin B (for selection). Cell stocks were maintained and grown in a sub-confluent state using standard cell culture procedures. The day before the experiment, the cells were harvested with non-enzymatic cell dissociation buffer and re-suspended in complete growth media at the desired concentration. A Corning 384-plate was then seeded with the proper number of cells in a volume of 25 μL, per well. The seeded plates were incubated overnight at 37° C.
On the day of the experiment, the Assay Buffer containing (a) HBSS with Ca^++ and Mg^++, (b) 20 mM HEPES, and (c) 0.1% BSA stabilizer (pH 7.4) was prepared. The growth medium was gently removed from the cell plates and 20 μL of Assay Buffer added to each well. The plate was then incubated at 37° C. for 60 min. Test compounds were serially diluted in Assay Buffer to desired concentrations (more particularly to one or more of the following μM concentrations: 25, 12.5, 6.25, 3.125, 1.5625, 0.78125, 0.390625, 0.1953125, 0.09765625, 0.048828125, 0.024414063, 0.012207031). Five μL of compound dilution was then added to each well and the plate incubated at 37° C. for 90 min. The detection reagents were prepared according to the manufacture's instruction. Twelve μL of the detection reagents were added to each well and the plate incubated at room temperature for 60 min.
The plates were read on an EnVision instrument, using Protocol name: Luminescence, Plate type: 384 Costar, Measurement height: 3 mm, Measurement time: 1 s, Aperture: 384 Plate aperture. The % activity relative to the positive control was calculated using the following equation:
The % Activity values were plotted versus the concentration of test compound and fitted to a sigmoidal dose-response curve with a Hill slope=1 (fixed value) using nonlinear regression with GraphPad Prism 5.0 to calculate the EC50 values. […]

T2 sequence (Q5NUL3 1-377 isoform Q5NUL3-1): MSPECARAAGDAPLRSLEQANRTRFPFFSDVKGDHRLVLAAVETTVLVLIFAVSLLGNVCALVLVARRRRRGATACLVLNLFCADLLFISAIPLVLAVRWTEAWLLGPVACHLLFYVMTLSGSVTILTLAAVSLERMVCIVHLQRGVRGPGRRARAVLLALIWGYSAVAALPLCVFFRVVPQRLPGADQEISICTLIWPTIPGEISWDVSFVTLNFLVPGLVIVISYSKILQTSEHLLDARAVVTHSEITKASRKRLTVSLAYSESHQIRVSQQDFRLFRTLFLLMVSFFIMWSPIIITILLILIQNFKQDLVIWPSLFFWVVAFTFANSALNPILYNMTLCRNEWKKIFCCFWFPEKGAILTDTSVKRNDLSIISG
T2 sequence (P32121 whole entry partner): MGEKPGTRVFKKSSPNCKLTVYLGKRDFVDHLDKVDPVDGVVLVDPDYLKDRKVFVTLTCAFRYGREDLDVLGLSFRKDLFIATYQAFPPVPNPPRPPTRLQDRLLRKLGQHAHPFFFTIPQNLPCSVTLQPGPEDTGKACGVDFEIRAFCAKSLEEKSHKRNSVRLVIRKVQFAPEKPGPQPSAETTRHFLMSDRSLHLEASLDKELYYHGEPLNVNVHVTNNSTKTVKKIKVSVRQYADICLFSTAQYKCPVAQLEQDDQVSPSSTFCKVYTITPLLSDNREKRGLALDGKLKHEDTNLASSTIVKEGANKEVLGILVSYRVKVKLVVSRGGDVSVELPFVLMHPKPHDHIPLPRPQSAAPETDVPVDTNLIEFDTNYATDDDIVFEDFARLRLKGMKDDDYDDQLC

Regarding `CCc1ccc(-c2cscc2COc2ccc(CCC(=O)O)c(C)c2C)cc1` [Cpd 41, 3-(4-((4-(4-ethylphenyl)thiophen-3-yl)methoxy)-2,3-dimethylphenyl)propanoic acid], the half-maximal effective concentration (EC50) at Human GPR120 short form stood at 142 nM; in test [1], 711 nM.

As for `COc1ccc(-c2csc(C(F)(F)F)c2COc2c(F)cc(CCC(=O)O)cc2F)cn1` [Cpd 42, 3-(3,5-difluoro-4-((4-(6-methoxypyridin-3-yl)-2-(trifluoromethyl)thiophen-3-yl)methoxy)phenyl)propanoic acid], the results for the EC50 (at Human GPR120 short form; in test [1]) were 143 nM and 445 nM, respectively.

As for `CCc1ccc(-c2cscc2COc2ccc(CCC(=O)O)c(F)c2F)cc1` [Cpd 43, 3-(4-((4-(4-ethylphenyl)thiophen-3-yl)methoxy)-2,3-difluorophenyl)propanoic acid], the 50% effective concentration (EC50) is 147 nM on Human GPR120 short form and 591 nM in test [1].

Take `O=C(O)CCc1cc(F)c(OCc2c(-c3ccc4c(c3)OCO4)csc2C(F)(F)F)c(F)c1` [Cpd 44, 3-(4-((4-(benzo[d][1,3]dioxol-5-yl)-2-(trifluoromethyl)thiophen-3-yl)methoxy)-3,5-difluorophenyl)propanoic acid]: the concentration giving a half-maximal response (EC50) on Human GPR120 short form is 152 nM; in test [1], 456 nM.

Turning to `COc1ccc(-c2csc(C(F)(F)F)c2COc2c(F)cc(CCCO)cc2F)cc1` [Cpd 45, 3-(3,5-difluoro-4-((4-(4-methoxyphenyl)-2-(trifluoromethyl)thiophen-3-yl)methoxy)phenyl)propan-1-ol], the results for the EC50 (at Human GPR120 short form; in test [1]) were 154 nM and 123 nM, respectively.

Regarding `OCCCc1cc(F)c(OCc2c(-c3ccc(Cl)cc3)csc2C(F)(F)F)c(F)c1` [Cpd 46, 3-(4-[[4-(4-chlorophenyl)-2-(trifluoromethyl)thiophen-3-yl]methoxy]-3,5-difluorophenyl)propan-1-ol], the EC50 on Human GPR120 short form was determined as 165 nM; in test [1], 125 nM.

For the compound `CCc1ccc(-c2sccc2COc2ccc(CCC(=O)O)c(F)c2F)cc1` [Cpd 48, 3-(4-((2-(4-ethylphenyl)thiophen-3-yl)methoxy)-2,3-difluorophenyl)propanoic acid], the figures for the EC50 (at Human GPR120 short form; in test [1]) were 168 nM and 236 nM, respectively.

Turning to `CCc1ccc(-c2sccc2COc2ccc(CCC(=O)O)c(C)c2C)cc1` [Cpd 49, 3-(4-((2-(4-ethylphenyl)thiophen-3-yl)methoxy)-2,3-dimethylphenyl)propanoic acid], the EC50 was 170 nM on Human GPR120 short form and 304 nM in test [1].

On to `O=C(O)CCc1cc(F)c(OCc2c(-c3ccc(Cl)cc3)csc2C(F)(F)F)c(F)c1F` [Cpd 50, 3-(4-((4-(4-chlorophenyl)-2-(trifluoromethyl)thiophen-3-yl)methoxy)-2,3,5-trifluorophenyl)propanoic acid], for which the results for the EC50 (on Human GPR120 short form; in test [1]) were 171 nM and 100 nM, respectively.

Take `O=C(O)CCc1cc(F)c(OCc2c(-c3ccc4c(c3)CCO4)csc2C(F)(F)F)c(F)c1` [Cpd 51, 3-(4-((4-(2,3-dihydrobenzofuran-5-yl)-2-(trifluoromethyl)thiophen-3-yl)methoxy)-3,5-difluorophenyl)propanoic acid]: the concentration for a half-maximal effect (EC50) at Human GPR120 short form was 172 nM; in test [1], 213 nM.

`CCc1ccc(-c2sccc2COc2c(F)cc(CCC(=O)O)cc2F)cc1` [Cpd 52, 3-(4-((2-(4-ethylphenyl)thiophen-3-yl)methoxy)-3,5-difluorophenyl)propanoic acid]: the values for the EC50 (on Human GPR120 short form; in test [1]) were 181 nM and 344 nM, respectively.

As to `CCc1ccc(-c2cscc2COc2c(F)cc(CCC(=O)O)cc2F)cc1` [Cpd 53, 3-(4-((4-(4-ethylphenyl)thiophen-3-yl)methoxy)-3,5-difluorophenyl)propanoic acid], the figures for the concentration giving a half-maximal response (EC50) (at Human GPR120 short form; in test [1]) were 191 nM and 668 nM, respectively.

For the compound `OCCCc1cc(F)c(OCc2c(-c3ccc(Cl)cc3)csc2C(F)(F)F)c(F)c1F` [Cpd 56, 3-(4-((4-(4-chlorophenyl)-2-(trifluoromethyl)thiophen-3-yl)methoxy)-2,3,5-trifluorophenyl)propan-1-ol], the concentration for a half-maximal effect (EC50) on Human GPR120 short form was 237 nM; in test [1], 108 nM.

For the compound `Cc1c(CCC(=O)O)ccc(OCc2c(-c3ccc(F)cc3)csc2C(F)(F)F)c1C` [Cpd 58, 3-(4-((4-(4-fluorophenyl)-2-(trifluoromethyl)thiophen-3-yl)methoxy)-2,3-dimethylphenyl)propanoic acid], the 50% effective concentration (EC50) at Human GPR120 short form was determined as 293 nM; in test [1] it was 639 nM.

As for `CCc1ccc(-c2snc(Cl)c2COc2ccc(CCC(=O)O)c(F)c2F)cc1` [Cpd 66, 3-(4-[[3-chloro-5-(4-ethylphenyl)-1,2-thiazol-4-yl]methoxy]-2,3-difluorophenyl)propanoic acid], the EC50 at Human GPR120 short form came to 19 nM; in test [1], 108 nM.

Turning to `O=C(O)CCc1ccc(OCc2c(-c3ccc(Cl)cc3)nsc2C(F)(F)F)c(Br)c1` [Cpd 69, 3-(3-bromo-4-[[3-(4-chlorophenyl)-5-(trifluoromethyl)-1,2-thiazol-4-yl]methoxy]phenyl)propanoic acid], the EC50 is 31 nM at Human GPR120 short form and 83 nM in test [1].

With `CCc1ccc(-c2nsc(C(F)(F)F)c2COc2c(F)cc(CCC(=O)O)cc2F)cc1` [Cpd 70, 3-(4-[[3-(4-ethylphenyl)-5-(trifluoromethyl)-1,2-thiazol-4-yl]methoxy]-3,5-difluorophenyl)propanoic acid], the EC50 on Human GPR120 short form was determined as 34 nM; in test [1], 98 nM.

Regarding `O=C(O)CCc1ccc(OCc2c(Cl)nsc2-c2ccc(Cl)cc2)c(F)c1F` [Cpd 72, 3-(4-[[3-chloro-5-(4-chlorophenyl)-1,2-thiazol-4-yl]methoxy]-2,3-difluorophenyl)propanoic acid], the results for the concentration for a half-maximal effect (EC50) (on Human GPR120 short form; in test [1]) were 39 nM and 103 nM, respectively.

Consider `CCc1ccc(-c2nsc(C(F)(F)F)c2COc2c(F)cc(CC(C)C(=O)O)cc2F)cc1` (stereo not drawn) [Cpd 80, 3-(4-[[3-(4-ethylphenyl)-5-(trifluoromethyl)-1,2-thiazol-4-yl]methoxy]-3,5-difluorophenyl)-2-methylpropanoic acid], for which the EC50 was found to be 51 nM on Human GPR120 short form and 246 nM in test [1].

For `COc1ccc(-c2nsc(C(F)(F)F)c2COc2c(F)cc(CCCO)cc2F)cn1` [Cpd 81, 3-(3,5-difluoro-4-[[3-(6-methoxypyridin-3-yl)-5-(trifluoromethyl)-1,2-thiazol-4-yl]methoxy]phenyl)propan-1-ol], the EC50 is 51 nM at Human GPR120 short form and 94 nM in test [1].

As to `Cc1c(CCC(=O)O)ccc(OCc2c(-c3ccc(Cl)c(F)c3)nsc2C(F)(F)F)c1C` [Cpd 82, 3-(4-((3-(4-chloro-3-fluorophenyl)-5-(trifluoromethyl)isothiazol-4-yl)methoxy)-2,3-dimethylphenyl)propanoic acid], the concentration for a half-maximal effect (EC50) turned out to be 54 nM on Human GPR120 short form and 172 nM in test [1].

For orientation: EC50 means the concentration giving half of the maximal effect.
